Data on 17 molecules can be found in patent publication US9216980B2, “Methods of use of diazacarbazoles for treating cancer” (Genentech, Inc., priority 2008, dated 2015).

Usually EC50 stands for the concentration at which the effect is half-maximal.

A value given as a limit tells only on which side of the number the result lay.

This assay concerns HT-29. Kind of assay: Cellular assay (checkpoint abrogation), phospho-Histone H3. Format: cell-based. The conditions noted are these: Homo sapiens; HT-29 cells, 20 nM SN-38 for 16 h, then 300 nM nocodazole plus compound for 24 h; phospho-Histone H3 levels; read-out: EC50 in the assay described in EXAMPLE ii. The protocol: Compounds are tested in a cellular assay using the human colorectal adenocarcinoma derived cell line HT-29 (ATCC HTB-38).
The cell line is maintained in DMEM/F12 (1:1) media (Invitrogen Gibco, #31331) supplemented with 10% FCS at 37° C. in a 5% CO2 humidified incubator.
Cells are seeded in 96-well plates at 30,000 cells/well and after 24 h they are exposed to 20 nM SN-38 in 0.4% DMSO. One column of 8 wells on each plate was used to generate a maximum signal control. These cells are treated with 0.4% DMSO without SN-38. Cells are grown for a further 16 h, then the media containing DMSO plus or minus SN-38 is removed and replaced with media containing 300 nM nocodazole alone (to determine baseline) or in combination with ten concentrations of chk1 inhibitor (final DMSO concentration is 0.4%). Cells are grown for a further 24 h. The media is removed and replaced with 50 μl lysis buffer containing protease inhibitors and phosphatase inhibitors. This buffer contains detergent to bring about cellular disruption. […] Following the transfer of lysate to the MSD plate, Histone H3 in the lysate is captured on the coated antibody by incubation at room temperature for 2 h. Following the capture step the plate is washed and then incubated with an antibody to phosphorylated Histone H3 which is conjugated with a Sulfo-Tag. This tag gives a signal when in proximity to the electrode on the base of the MSD plate. Binding the tagged antibody to the captured protein allow detection on a MSD reader.
EC50 values are calculated using the XLfit software package (version 2.0.5) or Graphpad Prism, (version 3.03) fitting a sigmoidal curve with a variable slope.
For `CS(=O)(=O)c1cccc(-c2cnc3[nH]c4cnc(C#N)cc4c3c2)c1` [Example 188, 3-(3-Methanesulfonyl-phenyl)-9H-dipyrido[2,3-b;4′,3′-d]pyrrole-6-carbonitrile], the concentration giving a half-maximal response (EC50) was less than 10 µM. For `CC(C)Oc1ccc(-c2cnc3[nH]c4cnc(C#N)cc4c3c2)cc1` [Example 135, 3-(4-Isopropoxy-phenyl)-9H-dipyrido[2,3-b;4′,3′-d]pyrrole-6-carbonitrile] the value was less than 10 µM; for `Cn1nncc1-c1cc2c(cn1)[nH]c1ncc(-c3ccc(CN4CCCCC4)cc3)cc12` [Example 368, 6-(1-Methyl-1H-1,2,3-triazol-5-yl)-3-(4-piperidin-1-ylmethyl-phenyl)-9H-dipyrido[2,3-b;4′,3′-d]pyrrole], less than 10 µM; for `CN1CCC(c2ccc(-c3cnc4[nH]c5cnc(C#N)cc5c4c3)cc2)CC1` [Example 1, 3-[4-(1-Methyl-piperidin-4-yl)-phenyl]-9H-dipyrido[2,3-b;4′,3′-d]pyrrole-6-carbonitrile], less than 10 µM.

Consider `c1cn(-c2cc3c(cn2)[nH]c2ncc(-c4ccc(CN5CCCCC5)cc4)cc23)cn1` [Example 366, 3-(4-Piperidin-1-ylmethyl-phenyl)-6-(1H-imidazol-1-yl)-9H-dipyrido[2,3-b;4′,3′-d]pyrrole], for which the EC50 was less than 10 µM. For `CN(C)S(=O)(=O)c1cccc(-c2cnc3[nH]c4cnc(C#N)cc4c3c2)c1` [Example 190, 3-(6-Cyano-9H-dipyrido[2,3-b;4′,3′-d]pyrrol-3-yl)-N,N-dimethyl-benzenesulfonamide] the value was less than 10 µM. With `N#Cc1cc2c(cn1)[nH]c1ncc(C#CC3CCCNC3)cc12` (centres unmarked) [Example 119, 3-Piperidin-3-ylethynyl-9H-dipyrido[2,3-b;4′,3′-d]pyrrole-6-carbonitrile] the figure was less than 10 µM; with `N#Cc1cc2c(cn1)[nH]c1ncc(-c3ccc(CO)cc3)cc12` [Example 157, 3-(4-Hydroxymethyl-phenyl)-9H-dipyrido[2,3-b;4′,3′-d]pyrrole-6-carbonitrile], less than 10 µM. With `Cn1ccc(-c2cnc3[nH]c4cnc(C#N)cc4c3c2)n1` [Example 80, 3-(1-Methyl-1H-pyrazol-3-yl)-9H-dipyrido[2,3-b;4′,3′-d]pyrrole-6-carbonitrile] the figure was less than 10 µM. `N#Cc1cc2c(cn1)[nH]c1ncc(-c3cnn(CCN4CCOCC4)c3)cc12` [Example 127, 3-[1-(2-Morpholin-4-yl-ethyl)-1H-pyrazol-4-yl]-9H-dipyrido[2,3-b;4′,3′-d]pyrrole-6-carbonitrile]: the half-maximal effective concentration (EC50) is less than 10 µM. As to `CC(=O)Nc1ccc(-c2cnc3[nH]c4cnc(C#N)cc4c3c2)cc1` [Example 186, N-[4-(6-Cyano-9H-dipyrido[2,3-b;4′,3′-d]pyrrol-3-yl)-phenyl]-acetamide], the EC50 was less than 10 µM. For `COc1ccc(-c2cnc3[nH]c4cnc(C#N)cc4c3c2)cc1OC` [Example 176, 9H-dipyrido[2,3-b;4′,3′-d]pyrrole-6-carbonitrile], the EC50 was less than 10 µM. For `CN1CCN(c2ccc(-c3cnc4[nH]c5cnc(C#N)cc5c4c3)cc2)CC1` [Example 125, 3-[4-(4-Methyl-piperazin-1-yl)-phenyl]-9H-dipyrido[2,3-b;4′,3′-d]pyrrole-6-carbonitrile] the value was less than 10 µM. For `N#Cc1cc2c(cn1)[nH]c1ncc(Cl)cc12` [Example 214, 3-Chloro-9H-dipyrido[2,3-b;4′,3′-d]pyrrole-6-carbonitrile] the value was less than 10 µM; for `CC(=O)Nc1cccc(-c2cnc3[nH]c4cnc(C#N)cc4c3c2)c1` [Example 138, N-[3-(6-Cyano-9H-dipyrido[2,3-b;4′,3′-d]pyrrol-3-yl)-phenyl]-acetamide], less than 10 µM.

Consider `N#Cc1cc2c(cn1)[nH]c1ncc(-c3cccc(N)c3)cc12` [Example 166, 3-(3-Amino-phenyl)-9H-dipyrido[2,3-b;4′,3′-d]pyrrole-6-carbonitrile], for which the concentration giving a half-maximal response (EC50) is less than 10 µM. For `N#Cc1cc2c(cn1)[nH]c1ncc(-c3cccs3)cc12` [Example 160, 3-Thiophen-2-yl-9H-dipyrido[2,3-b;4′,3′-d]pyrrole-6-carbonitrile] the value was less than 10 µM.
